Measurements reported in patent publication US5508383A, “Cyclic peptide LHRH antagonists” (Tap Holdings Inc., priority 1994, dated 1996).
Where a SMILES comes first, the peptide text is derived from it. Bridges are numbered along the chain shown (N, C = ends). [ ]: non-standard residue; d: D form. The star is where a group is joined. Propanoyl(3-(4-Cl-Ph)) = O=C(CCc1ccc(Cl)cc1)*; Phenylacetyl(4-F) = O=C(Cc1ccc(F)cc1)*; Lys(iPr) = CC(C)NCCCC[C@H](N)C(=O)O; NMeY = CN[C@@H](Cc1ccc(O)cc1)C(=O)O; Nicotinoyl = O=C(c1cccnc1)*

Biological target: T1, LHRH (Rattus norvegicus, UniProt P30969)
T1 construct: endogenous in cells; host or cells: pituitary cells (own knowledge of the cited method)
T1 sequence (P30969 1-327): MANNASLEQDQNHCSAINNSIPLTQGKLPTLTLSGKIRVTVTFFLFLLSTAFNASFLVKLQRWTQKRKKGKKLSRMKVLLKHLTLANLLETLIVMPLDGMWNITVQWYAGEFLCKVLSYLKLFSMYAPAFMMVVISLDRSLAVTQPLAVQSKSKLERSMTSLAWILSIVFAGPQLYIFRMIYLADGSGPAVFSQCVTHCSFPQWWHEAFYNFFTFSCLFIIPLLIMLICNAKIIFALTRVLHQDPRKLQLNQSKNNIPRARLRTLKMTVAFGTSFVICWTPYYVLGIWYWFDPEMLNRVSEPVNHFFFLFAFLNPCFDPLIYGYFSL
Experiment: in vitro test for LHRH antagonist potency (pA2), shift of the leuprolide response curve
Format: cell-based
Settings: negative logarithm of antagonist concentration required to shift the response curve produced by the agonist leuprolide to two-fold higher concentration
Experimental: Representative compounds of the present invention were evaluated in an in vitro test for LHRH antagonist potency (pA2). The test employed the method detailed in F. Haviv, et al. J. Med. Chem., 32: 2340-2344 (1989). The values of pA2 are the negative logarithms of the concentration of the particular antagonist test compound required to shift the response curve produced by the agonist leuprolide to two-fold higher concentration. (Leuprolide is the LHRH agonist having the structure 5-oxo-Pro^1 -His^2 -Trp^3 -Ser^4 -Tyr^5 -D-Leu^6 -Leu^7 -Arg^8 -Pro-^9 -NHEt and is disclosed and claimed in U.S. Pat. No. 4,005,063.) Typically pA2 values of 6.0 or greater are indicative of acceptable LHRH antagonist potency, with compounds having pA2 values of 9.0 or greater being preferred.

pA2 | Compound | Kb [nM]
5.66 | 4FPhenylacetyl-c-{DGlu-Ser-NMeTyr-DLys(Nicotinyl)-Leu-Lys(N-epsilon-Isopropyl)-Pro-DLys}-NH2 [Example 15] | 
 | CC(=O)N[C@@H]1CCCCNC(=O)CC[C@H](C(N)=O)NC(=O)[C@@H]2CCCN2C(=O)[C@H](CCCCNC(C)C)NC(=O)[C@H](CC(C)C)NC(=O)[C@@H](CCCCNC(=O)c2cccnc2)NC(=O)[C@H](Cc2ccc(O)cc2)N(C)C(=O)[C@H](CO)NC1=O [Example 9, Ac-c-{DLys-Ser-NMeTyr-DLys(Nicotinyl)-Leu-Lys(N-epsilon-Isopropyl)-Pro-DGlu}-NH2] (Ac-[dK]S[NMeY][dK](Nicotinoyl)L[Lys(iPr)]P[dE]-NH2; lactam 1-8) | 6.17
 | CC(C)C[C@@H]1NC(=O)[C@@H](CCCCNC(=O)c2cccnc2)NC(=O)[C@H](Cc2ccc(O)cc2)N(C)C(=O)[C@H](CO)NC(=O)[C@H](NC(=O)Cc2ccc(F)cc2)CCCCNC(=O)CC[C@H](C(N)=O)NC(=O)[C@@H]2CCCN2C(=O)[C@H](CCCCNC(C)C)NC1=O [Example 10, 4F-Phenylacetyl-c-{DLys-Ser-NMeTyr-DLys(Nicotinyl)-Leu-Lys(N-epsilon-Isopropyl)-Pro-DGlu}-NH2] ({Phenylacetyl(4-F)}-[dK]S[NMeY][dK](Nicotinoyl)L[Lys(iPr)]P[dE]-NH2; lactam 1-8) | 724
 | CC(=O)N[C@@H]1CCC(=O)NCCCC[C@H](C(N)=O)NC(=O)[C@@H]2CCCN2C(=O)[C@H](CCCCNC(C)C)NC(=O)[C@H](CC(C)C)NC(=O)[C@@H](CCCCNC(=O)c2cccnc2)NC(=O)[C@H](Cc2ccc(O)cc2)N(C)C(=O)[C@H](CO)NC1=O [Example 11, Ac-c-{DGlu-Ser-NMeTyr-DLys(Nicotinyl)-Leu-Lys(N-epsilon-Isopropyl)-Pro-DLys}-NH2] (Ac-[dE]S[NMeY][dK](Nicotinoyl)L[Lys(iPr)]P[dK]-NH2; lactam 1-8) | 20.4
 | CC(C)C[C@@H]1NC(=O)[C@@H](CCCCNC(=O)c2cccnc2)NC(=O)[C@H](Cc2ccc(O)cc2)N(C)C(=O)[C@H](CO)NC(=O)[C@H](NC(=O)CCc2ccc(Cl)cc2)CCCCNC(=O)CC[C@H](C(N)=O)NC(=O)[C@@H]2CCCN2C(=O)[C@H](CCCCNC(C)C)NC1=O [Example 13, 4ClPhenylpropionyl-c-{DLys-Ser-NMeTyr-DLys(Nicotinyl)-Leu-Lys(N-epsilon-Isopropyl)-Pro-DGlu}-NH2] ({Propanoyl(3-(4-Cl-Ph))}-[dK]S[NMeY][dK](Nicotinoyl)L[Lys(iPr)]P[dE]-NH2; lactam 1-8) | 19.1
 | CC(C)C[C@@H]1NC(=O)[C@@H](CCCCNC(=O)c2cccnc2)NC(=O)[C@H](Cc2ccc(O)cc2)N(C)C(=O)[C@H](CO)NC(=O)[C@H](NC(=O)CCc2ccc(Cl)cc2)CCCCNC(=O)CC[C@H](C(N)=O)NC(=O)CNC(=O)[C@H](CCCCNC(C)C)NC1=O [Example 16, 4ClPhenylpropionyl-c-{DLys-Ser-NMeTyr-DLys(Nicotinyl)-Leu-Lys(N-epsilon-Isopropyl)-Gly-DGlu}-NH2] ({Propanoyl(3-(4-Cl-Ph))}-[dK]S[NMeY][dK](Nicotinoyl)L[Lys(iPr)]G[dE]-NH2; lactam 1-8) | 40.7
 | CC(C)C[C@@H]1NC(=O)[C@@H](CCCCNC(=O)c2cccnc2)NC(=O)[C@H](Cc2ccc(O)cc2)N(C)C(=O)CNC(=O)[C@H](NC(=O)CCc2ccc(Cl)cc2)CCCCNC(=O)CC[C@H](C(N)=O)NC(=O)CNC(=O)[C@H](CCCCNC(C)C)NC1=O [Example 18, 4ClPhepropionyl-c-{DLys-Gly-NMeTyr-DLys(Nicotinyl)-Leu-Lys(N-epsilon-Isopropyl)-Gly-DGlu}-NH2] ({Propanoyl(3-(4-Cl-Ph))}-[dK]G[NMeY][dK](Nicotinoyl)L[Lys(iPr)]G[dE]-NH2; lactam 1-8) | > 1000
9.58 | Ac-D2Nal-D4ClPhe-c-{DGlu-Ser-NMeTyr-DLys(Nicotinyl)-Leu-Lys(N-epsilon-Isopropyl)-Pro-DLys}-NH2 [Example 7] | 
9.77 | Ac-D2Nal-D4ClPhe-c-{DGlu-Ser-NMeTyr-DLys(Nicotinyl)-Leu-Lys(N-epsilon-Isopropyl)-Pro-Lys}-NH2 [Example 12] | 
10.05 | Ac-D2Nal-D4ClPhe-c-{DLys-Ser-NMeTyr-DLys(Nicotinyl)-Leu-Lys(N-epsilon-Isopropyl)-Pro-Glu}-NH2 [Example 4] | 
9.66 | Ac-D2Nal-D4ClPhe-c-{DLys-Ser-Tyr-DLys(Nicotinyl)-Leu-Lys(N-epsilon-Isopropyl)-Pro-DGlu}-NH2 [Example 8] | 
9.27 | Ac-D2Nal-D4ClPhe-c-{DLys-Ser-Tyr-DLys(Nicotinyl)-Leu-Lys(N-epsilon-Isopropyl)-Pro-Glu}-NH2 [Example 2] | 
9.52 | Ac-D2Nal-D4ClPhe-c-{DOrn-Ser-NMeTyr-DLys(Nicotinyl)-Leu-Lys(N-epsilon-Isopropyl)-Pro-DGlu}-NH2 [Example 14] | 
7.54 | Ac-D2Nal-D4ClPhe-c-{Glu-Ser-NMeTyr-DLys(Nicotinyl)-Leu-Lys(N-epsilon-Isopropyl)-Pro-DOrn}-NH2 [Example 6] | 
8.73 | Ac-D2Nal-D4ClPhe-c-{Lys-Ser-NMeTyr-DLys(Nicotinyl)-Leu-Lys(N-epsilon-Isopropyl)-Pro-DGlu}-NH2 [Example 3] | 
8.2 | Ac-D2Nal-D4ClPhe-c-{Lys-Ser-NMeTyr-DLys(Nicotinyl)-Leu-Lys(N-epsilon-Isopropyl)-Pro-Glu}-NH2 [Example 5] | 
8.29 | NAc-D2Nal D4ClPhe-c-{DLys-Gly-NMeTyr-DLys(Nicotinyl)-Leu-Lys(N-epsilon-Isopropyl)-Gly-DGlu}-NH2 [Example 17] | 
5.95 | NAc-c-{DGlu-Gly-NMeTyr-DLys(Nicotinyl)-Leu-Lys(N-epsilon-Isopropyl)-Sar-DLys}-NH2 [Example 19] | 

Compound | pA2 | Kb [nM]
Ac-D2Nal-D4ClPhe-c-{DLys-Ser-NMeTyr-DLys(Nicotinyl)-Leu-Lys(N-epsilon-Isopropyl)-Pro-DGlu}-NH2 [Example 1] | 10.16 | 
